Results: paper PMC7736581, “Activation of the IRE1 RNase through remodeling of the kinase front pocket by ATP-competitive ligands” (Nature Communications, 2020)

Experiments:
Test in all cases: biochemical
Set-up in all cases: Invitrogen kinase panel: Z'Lyte activity (ATP at Km) or LanthaScreen competitive ATP-site binding, percent inhibition
[1] = target: T1, Flt3 (Homo sapiens, UniProt P36888)
T1 sequence (P36888 1-993): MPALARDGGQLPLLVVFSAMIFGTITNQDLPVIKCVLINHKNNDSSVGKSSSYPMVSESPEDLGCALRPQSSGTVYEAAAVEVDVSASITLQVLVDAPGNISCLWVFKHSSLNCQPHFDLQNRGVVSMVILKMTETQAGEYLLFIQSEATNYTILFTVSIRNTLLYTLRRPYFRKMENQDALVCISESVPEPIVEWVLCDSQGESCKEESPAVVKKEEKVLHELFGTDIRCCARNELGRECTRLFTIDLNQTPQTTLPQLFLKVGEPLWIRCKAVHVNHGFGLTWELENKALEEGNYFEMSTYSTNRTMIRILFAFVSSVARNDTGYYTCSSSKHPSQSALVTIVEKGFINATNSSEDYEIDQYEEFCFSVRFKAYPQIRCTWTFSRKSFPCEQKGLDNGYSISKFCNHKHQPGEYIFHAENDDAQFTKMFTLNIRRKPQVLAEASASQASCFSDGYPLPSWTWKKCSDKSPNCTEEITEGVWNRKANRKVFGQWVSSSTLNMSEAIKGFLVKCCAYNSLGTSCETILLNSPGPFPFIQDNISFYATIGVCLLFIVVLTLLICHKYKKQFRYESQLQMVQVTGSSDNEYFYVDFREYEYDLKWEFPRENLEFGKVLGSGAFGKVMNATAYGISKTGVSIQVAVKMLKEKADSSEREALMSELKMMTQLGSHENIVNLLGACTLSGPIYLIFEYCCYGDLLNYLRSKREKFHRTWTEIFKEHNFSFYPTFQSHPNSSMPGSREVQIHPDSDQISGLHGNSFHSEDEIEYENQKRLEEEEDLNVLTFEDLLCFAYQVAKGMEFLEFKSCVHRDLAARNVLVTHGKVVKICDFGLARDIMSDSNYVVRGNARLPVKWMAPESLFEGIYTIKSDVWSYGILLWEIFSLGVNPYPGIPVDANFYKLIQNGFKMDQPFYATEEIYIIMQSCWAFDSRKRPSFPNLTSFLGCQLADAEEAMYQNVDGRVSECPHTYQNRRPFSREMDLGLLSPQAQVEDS

[2] = target: Met (Homo sapiens, UniProt P08581)
[3] = target: T2, PKD1 (Homo sapiens, UniProt Q15139)
T2 construct: gene PRKD1
T2 sequence (Q15139 1-912): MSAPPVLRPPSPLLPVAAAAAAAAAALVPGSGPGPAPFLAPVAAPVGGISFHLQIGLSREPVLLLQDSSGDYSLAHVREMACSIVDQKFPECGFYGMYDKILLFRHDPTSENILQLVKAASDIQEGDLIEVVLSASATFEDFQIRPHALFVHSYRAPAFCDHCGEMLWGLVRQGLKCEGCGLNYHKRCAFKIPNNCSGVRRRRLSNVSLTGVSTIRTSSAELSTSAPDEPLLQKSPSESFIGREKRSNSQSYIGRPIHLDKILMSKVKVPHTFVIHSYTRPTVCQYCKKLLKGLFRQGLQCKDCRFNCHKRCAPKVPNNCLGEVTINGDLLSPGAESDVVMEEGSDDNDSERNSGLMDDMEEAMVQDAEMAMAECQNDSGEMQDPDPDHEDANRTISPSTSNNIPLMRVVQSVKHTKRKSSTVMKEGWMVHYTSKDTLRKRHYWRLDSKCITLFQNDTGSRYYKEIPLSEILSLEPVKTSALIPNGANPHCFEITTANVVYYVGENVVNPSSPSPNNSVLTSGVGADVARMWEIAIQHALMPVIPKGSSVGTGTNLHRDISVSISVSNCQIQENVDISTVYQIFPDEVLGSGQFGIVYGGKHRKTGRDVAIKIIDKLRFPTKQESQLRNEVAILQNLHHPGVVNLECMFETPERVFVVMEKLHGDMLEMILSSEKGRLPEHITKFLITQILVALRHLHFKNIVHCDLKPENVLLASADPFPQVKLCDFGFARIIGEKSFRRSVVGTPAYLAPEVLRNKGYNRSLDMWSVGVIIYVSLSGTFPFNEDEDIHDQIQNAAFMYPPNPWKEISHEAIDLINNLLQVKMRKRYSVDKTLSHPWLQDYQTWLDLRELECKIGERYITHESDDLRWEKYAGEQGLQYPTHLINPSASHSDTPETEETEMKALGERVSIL

Chain of Met (P08581 whole entry): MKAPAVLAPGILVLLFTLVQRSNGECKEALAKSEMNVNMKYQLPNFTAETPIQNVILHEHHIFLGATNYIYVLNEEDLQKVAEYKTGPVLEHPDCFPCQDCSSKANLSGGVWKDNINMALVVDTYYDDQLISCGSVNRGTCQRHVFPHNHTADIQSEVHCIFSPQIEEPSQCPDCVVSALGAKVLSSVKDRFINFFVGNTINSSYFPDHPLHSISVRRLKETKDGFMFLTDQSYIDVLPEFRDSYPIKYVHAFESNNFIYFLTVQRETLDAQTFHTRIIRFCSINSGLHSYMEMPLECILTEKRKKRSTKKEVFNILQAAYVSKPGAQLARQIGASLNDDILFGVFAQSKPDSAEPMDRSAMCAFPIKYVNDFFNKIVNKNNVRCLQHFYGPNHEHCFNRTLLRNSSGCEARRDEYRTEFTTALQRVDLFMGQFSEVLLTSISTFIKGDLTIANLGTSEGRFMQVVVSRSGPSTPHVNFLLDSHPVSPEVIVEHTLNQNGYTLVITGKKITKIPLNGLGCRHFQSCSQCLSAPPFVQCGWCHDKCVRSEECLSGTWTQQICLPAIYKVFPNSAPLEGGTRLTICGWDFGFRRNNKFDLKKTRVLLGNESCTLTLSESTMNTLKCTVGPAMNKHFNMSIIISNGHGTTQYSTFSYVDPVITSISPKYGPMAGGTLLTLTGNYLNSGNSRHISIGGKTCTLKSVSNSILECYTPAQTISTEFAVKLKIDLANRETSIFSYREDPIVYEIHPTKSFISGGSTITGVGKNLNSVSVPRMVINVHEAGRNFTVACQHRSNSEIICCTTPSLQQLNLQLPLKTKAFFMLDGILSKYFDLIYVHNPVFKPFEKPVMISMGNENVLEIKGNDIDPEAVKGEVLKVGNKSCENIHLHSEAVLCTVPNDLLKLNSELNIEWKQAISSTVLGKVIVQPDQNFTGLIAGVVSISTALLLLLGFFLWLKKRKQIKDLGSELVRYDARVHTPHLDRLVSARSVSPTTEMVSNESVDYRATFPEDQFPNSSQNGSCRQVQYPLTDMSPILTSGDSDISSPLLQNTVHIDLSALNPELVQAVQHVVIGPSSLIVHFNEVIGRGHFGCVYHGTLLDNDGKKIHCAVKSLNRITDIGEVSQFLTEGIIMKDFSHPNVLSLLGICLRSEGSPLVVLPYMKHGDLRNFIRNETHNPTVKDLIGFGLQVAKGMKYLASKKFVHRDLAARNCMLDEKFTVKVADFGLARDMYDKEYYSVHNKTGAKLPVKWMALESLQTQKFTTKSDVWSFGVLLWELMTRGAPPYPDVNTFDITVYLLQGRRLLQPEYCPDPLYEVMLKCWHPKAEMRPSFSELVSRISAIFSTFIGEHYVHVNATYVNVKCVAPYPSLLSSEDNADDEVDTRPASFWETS

Row | inhibition at 1 µM [1] [%] | inhibition at 1 µM [2] [%] | inhibition at 1 µM [3] [%] | SMILES
1 | 16.5 | 5 | 31 | CC#CC(=O)Nc1cccc2c(Oc3ncccc3-c3ccnc(N[C@H]4CCCNC4)n3)c(C)ccc12 [G-7658]
2 | 98.2 | 88.8 | 97.5 | O=c1cc(-c2n[nH]c3ncc(-c4c(F)cccc4F)cc23)nc(N2CCC(O)CC2)[nH]1 [G-9807]

Row | SMILES | inhibition at 1 µM [1] [%] | inhibition at 1 µM [2] [%] | inhibition at 1 µM [3] [%]
3 | CCOC(=O)Nc1cccc2c(Oc3ncccc3-c3ccnc(N[C@H]4CCCNC4)n3)c(C)ccc12 [G-1749] | 8 | 4 | 33.5
